The values below are quoted from earlier work in US20080269347A1, “EPINEPHRINE FORMULATIONS” (Azopharma, Inc., priority 2006, published 2008).

Structures can show the parent of a compound that is named as a salt. Where two headings read alike, the source gives them in different places.

`CNC[C@H](O)c1ccc(O)c(O)c1` [Epinephrine hydrochloride]: under “in dextrose (5% in water)”, the “pH at which unstable” value is given as “above 5.5”. For the same compound, the “stability when mixed with lidocaine hydrochloride” value (intravenous admixture, pH raised above 5.5 to about 6) is “begin to deteriorate within several hours”. The decomposition is, setting by setting: (pH 2.5, in 200 days at 30° C.) 5%; (pH 4.5, in 200 days at 30° C.) 10%.
